Measured values as given in patent US11512085B2, “Heteroaryl compound having drug activity” (SHANGHAI DUDE MEDICAL TECHNOLOGY CO., LTD, priority 2017, dated 2022).

What was measured:
[1] = tested on: DB; experiment: In vitro tumor cell proliferation (CellTiter-Glo), DB; format: cell-based; settings: Homo sapiens, 72 h, read-out: Growth IC50
Protocol: (§1) Biological Embodiment 8: Study on Effects of Active Compounds for Inhibiting In Vitro Tumor Cell Proliferation
(§2) Promega CellTiter-Glo cell activity detection kit by luminescence (Promega-G7573).
(§3) Tumor cell lines were cultured in a 5% of CO2 incubator at 37° C. according to respective culture conditions; and periodic passage was performed, and cells positioned in a logarithmic phase were taken for planking.
(§4) 3) 90 μL of cell suspension was added into each well of the culture plate, and a culture solution containing no cell was added into blank control;
(§5) 4) the culture plate was cultured overnight in the 5% of CO2 incubator having relative humidity of 100% at 37° C.
(§6) Preparation of a 400× compound storage plate: the compound was diluted from the maximum concentration gradient to the lowest concentration with DMSO. […]
(§7) The following steps were performed according to the specification of the Promega CellTiter-Glo cell activity detection kit by luminescence (Promega-G7573). […]
(§8) 9) the luminescence signal was detected on the 2104 EnVision plate reader.

[2] = tested on: Granta-519; experiment: In vitro tumor cell proliferation (CellTiter-Glo), Granta-519; format: cell-based; settings: Homo sapiens, Granta-519, 72 h; read-out: Growth IC50
Protocol: as §1, §2, §3, §4, §5, §6, §7, §8

[3] = Rat liver microsome stability test; format: in vitro ADME
Protocol: Preparation of Buffer Solution:
1. 100 mM potassium phosphate buffer solution, pH of 7.4
Preparation of Test Compound Solution:
1. A test compound solution (10 mM, 5 μL) was diluted with a methanol solution (495 μL), and a 100 μM solution was prepared;
2. Preparation of a working solution: the above solution (50 μL) was diluted with the potassium phosphate buffer solution (450 μL, 100 mM) so as to obtain diluents (10 μM).
NADPH Regeneration System (Final Concentration 1 Unit/mL of Isocitrate Dehydrogenase):
1. beta-NADP, supplier: sigma Cat. No. N0505
3. isocitrate dehydrogenase, supplier: sigma Cat. No. 12002
Cold acetonitrile containing 100 ng/mL of tolbutamide and 100 ng/mL of labetalol serves as an internal standard
1. a 10 μL/well of working solution was added into plates (T0, T5, T10, T20, T30, T60, NCF60) beyond the blank;
2. a 80 μL/well of microsome solution was added, and incubation was performed at 37° C. for 10 min;
3. a 10 μL of 100 mM phosphate buffer solution was added into each well of an NCF60 plate, the plate was placed in a warm bath at 37° C., and timing started;
4. a 10 μL/well of NADPH regeneration system was added after preheating, and a reaction started;
5. incubation was performed at 37° C., and timing started
6. a 300 μL/well of stop solution was added (4° C., containing 100 ng/mL of tolbutamide and 100 ng/mL of labetalol) to end the reaction;
7. the plate was shaken for 10 min;
8. centrifugation was performed at 4° C. at a rotation speed of 4000 rpm; and
9. sample LC/MS/MS detection was performed.
Data Analysis Use Equation of First Order Kinetics to Calculate t½ and Clint(Mic): […]
equation of first order kinetics: […]

[4] = tested on: p-Erk/t-Erk; experiment: Western blotting of p-Erk/t-Erk in anti-IgG stimulated DOHH2 cells; format: cell-based; settings: DOHH2 cells, 5, 100, 2000 nM, 1 h, anti-IgG stimulation
Protocol: Biological Embodiment 4: Analysis of Influences of Test Compounds on p-Btk/t-Btk, p-PLCγ/t-PLCγ and p-Erk/t-Erk Expression Levels of DOHH2 Cells by Virtue of Western Blotting
1) DOHH2 cells on a logarithmic phase were collected;
2) a cell concentration was adjusted to a needed concentration;
3) 2 ml of cell suspension was added into a 6-well plate for performing culture, three different concentrations, that is, 5 nM, 100 nM and 2000 nM, of test samples were respectively set, and each concentration was repeated once;
4) test samples were added into plate wells, and DMSO served as control, wherein a final concentration of the DMSO was 0.1%;
5) culture was performed for 1 h; and […]
6. protein extraction and quantification […]
5) a protein concentration was determined by using Pierce™ BCA Protein Assay Kit; and
6) according to BCA protein quantification results, all samples were diluted to the same final concentration by adding 4×LDS sample buffer and 10× sample reducing agent into the RIPA buffer solution, and the solution was heated at 100° C. for 10 min. […]
10) chemiluminiscence was detected by Tanon 5200 multi.
7. Quantification of strip intensity
Intensity of each strip was quantified by using Image quant densitometry software. […]

## C=CC(=O)NN1CCCC(n2nc(-c3ccc(Oc4ccccc4)cc3)c3c(N)ncnc32)C1 (centres unmarked) [Embodiment 6, N-(3-(4-amino-3-(4-phenoxyphenyl)-1H-pyrazolo[3,4-D]pyrimidine-1-yl)-1-piperidyl)-acrylamide]
[1]
  IC50: > 10 µM
[2]
  IC50: 7.07 µM
[3]; RLM 0.5, 60 min, no co-factor
  Remaining (*NCF = 60 min): 105.4%
[3]; RLM 0.5, 60 min with NADPH regenerating system
  Remaining (T = 60 min): 1.1%
[3]; rat, liver microsomes, pH 7.4, RLM 0.5 (0.5 mg protein/mL)
  half-life at 1 µM: 8.9 min
[3]; rat, liver microsomes, pH 7.4, RLM 0.5, read-out: CLint(mic)
  microsomal CLint at 1 µM: 155 µL/min/mg
[3]; rat, liver microsomes, pH 7.4, RLM 0.5, scaled from CLint(mic)
  CLint scaled at 1 µM: 280 mL/min/kg
[4]
  relative level of p-Erk/t-Erk: obviously decreased
